Source: patent US7629150B2, “Transformed cell harboring DNA or RNA encoding sugar chain synthesizing agent having β1,3-N-acetylglucosaminyltransferase activity” (Kyowa Hakko Kirin Co., Ltd., priority 2000, dated 2009)

Molecular target: T1, G6 polypeptide (Homo sapiens, UniProt Q9BYG0)
T1 construct: In order to obtain a DNA encoding the full-length G6 polypeptide, PCR was carried out; expressed in transfected cells; Triton X-100 cell extract
T1 sequence (Q9BYG0 1-378): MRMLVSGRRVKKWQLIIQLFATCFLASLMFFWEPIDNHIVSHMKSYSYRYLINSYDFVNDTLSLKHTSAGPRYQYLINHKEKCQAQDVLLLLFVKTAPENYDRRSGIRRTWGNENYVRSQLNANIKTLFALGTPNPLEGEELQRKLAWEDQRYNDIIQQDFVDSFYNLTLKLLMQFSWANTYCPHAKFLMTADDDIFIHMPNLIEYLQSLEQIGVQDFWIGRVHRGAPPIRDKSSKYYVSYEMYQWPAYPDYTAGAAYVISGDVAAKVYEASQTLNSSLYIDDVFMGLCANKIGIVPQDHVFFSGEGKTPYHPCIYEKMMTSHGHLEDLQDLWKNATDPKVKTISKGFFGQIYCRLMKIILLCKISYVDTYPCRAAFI
Assay: β1,3-N-acetylglucosaminyltransferase activity of cell extract of Namalwa cells transfected with pAMo-G6, 2-aminobenzamide-labeled oligosaccharide substrates
Format: biochemical
Conditions: cell extract (20 μg protein) of pAMo-G6-transfected Namalwa cells; 2-aminobenzamide-labeled substrate; 37° C., 16 hours
Procedure: The transformant cells (about 2×10^7 cells) obtained in Example 6(1) were put into a microtube (1.5 ml: manufactured by Eppendorf), and the cells were collected by centrifugation (550×g, 7 minutes). The cells were washed with 0.9 ml of PBS, the washed cells were suspended in a solution (100 μl) containing 20 mmol/l HEPES (pH 7.2) and 2% Triton X-100 and then the cells were disrupted using a sonicator (Bioruptor; manufactured by COSMO BIO). After the mixture was allowed to stand at 4° C. for 1 hour, the supernatant was obtained by centrifugation (550×g, 7 minutes). The supernatant was used as an enzyme sample.
A β1,3-N-acetylglucosaminyltransferase activity was measured by using this enzyme sample and 2-aminobenzamide-labeled sugar chain substrates. […]
The activity measurement was carried out using known methods [FEBS, 462, 289 (1999), J. Biol. Chem., 269, 14730-14737 (1994), J. Biol. Chem., 267, 23507 (1992), J. Biol. Chem., 267, 2994 (1992)]. Specifically, the reaction was carried out at 37° C. for 16 hours in 20 μl of an assay solution [150 mmol/l MOPS (pH 7.5), 50 mmol/l UDP-GlcNAc (manufactured by SIGMA), 20 mmol/l sodium cacodylate (pH 7.2), 0.4% Triton CF-54, 10 mmol/l MnCl2, 15 mmol/l 2-aminobenzamide-labeled sugar chain substrate, the above cell extract (20 μg as protein)], and then the product was detected by high performance liquid chromatography (HPLC). […]

SMILES | ratio of the substrate converted into the product
CC(=O)N[C@H]1[C@H](O[C@H]2[C@@H](O)[C@@H](CO)O[C@@H](O[C@H]3[C@H](O)[C@@H](O)C(O)O[C@@H]3CO)[C@@H]2O)O[C@H](CO)[C@@H](O[C@@H]2O[C@H](CO)[C@H](O)[C@H](O)[C@H]2O)[C@@H]1O (mixture of isomers) [LNnT, lacto-N-neotetraose] | 6.11%
CC(=O)N[C@H]1[C@H](O[C@H]2[C@@H](O)[C@@H](CO)O[C@@H](O[C@H]3[C@H](O)[C@@H](NC(C)=O)C(O)O[C@@H]3CO)[C@@H]2O)O[C@H](CO)[C@@H](O[C@@H]2O[C@H](CO)[C@H](O)[C@H](O)[C@H]2O)[C@@H]1O (some centres unmarked) [2LN, Galβ1-4GlcNAcβ1-3Galβ1-4GlcNAc] | 3.95%
